Reference: US4550186A, “Binuclear copper (II) carboxylates formed from amine-carboxyboranes” (Duke University, priority 1983, dated 1985)

Assays:
[1] = Appetite / food intake; conditions: in vivo
[2] = target: T1, ribonucleotide reductase (Mus musculus, UniProt P07742+P11157); experiment: In vivo ribonucleotide reductase activity
T1 construct: endogenous in cells; host or cells: Ehrlich ascites tumor cells
T1 sequence (P07742 1-792): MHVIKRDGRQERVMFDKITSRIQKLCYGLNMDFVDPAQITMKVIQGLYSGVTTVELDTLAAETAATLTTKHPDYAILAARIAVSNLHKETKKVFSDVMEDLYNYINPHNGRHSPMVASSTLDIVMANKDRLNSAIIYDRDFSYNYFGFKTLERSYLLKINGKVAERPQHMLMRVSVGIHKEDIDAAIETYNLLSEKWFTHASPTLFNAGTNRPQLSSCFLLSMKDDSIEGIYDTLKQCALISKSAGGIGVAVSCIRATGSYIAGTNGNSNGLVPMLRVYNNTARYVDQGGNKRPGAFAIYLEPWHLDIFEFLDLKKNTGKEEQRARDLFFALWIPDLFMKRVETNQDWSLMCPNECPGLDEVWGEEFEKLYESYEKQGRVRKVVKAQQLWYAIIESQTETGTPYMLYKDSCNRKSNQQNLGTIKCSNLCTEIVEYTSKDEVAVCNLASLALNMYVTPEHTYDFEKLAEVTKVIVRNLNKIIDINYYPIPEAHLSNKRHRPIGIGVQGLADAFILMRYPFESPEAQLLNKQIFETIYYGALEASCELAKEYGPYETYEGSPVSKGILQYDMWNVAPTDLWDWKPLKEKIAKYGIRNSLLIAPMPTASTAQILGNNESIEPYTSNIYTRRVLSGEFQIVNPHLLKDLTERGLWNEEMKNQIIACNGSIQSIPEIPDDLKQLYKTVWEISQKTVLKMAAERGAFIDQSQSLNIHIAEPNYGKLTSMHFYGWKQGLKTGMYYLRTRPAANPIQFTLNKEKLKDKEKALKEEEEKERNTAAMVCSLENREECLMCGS
T1 sequence (P11157 1-390): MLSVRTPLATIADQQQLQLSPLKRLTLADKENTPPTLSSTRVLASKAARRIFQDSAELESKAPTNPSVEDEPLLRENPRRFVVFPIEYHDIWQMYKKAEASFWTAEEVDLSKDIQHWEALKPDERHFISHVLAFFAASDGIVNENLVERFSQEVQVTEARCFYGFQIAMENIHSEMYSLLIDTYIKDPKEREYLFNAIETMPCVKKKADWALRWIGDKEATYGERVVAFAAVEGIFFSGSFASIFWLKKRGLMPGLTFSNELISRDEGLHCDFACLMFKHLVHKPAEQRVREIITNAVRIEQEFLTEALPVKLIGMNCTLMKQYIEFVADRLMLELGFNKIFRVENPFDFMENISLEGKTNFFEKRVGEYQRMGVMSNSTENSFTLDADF
Method: CF1 male mice (~30 g) were implanted with 2×10^6 Ehrlich ascites tumor cells, intraperitoneally on Day 0. Compound I was suspended by homogenation in 0.05% polysorbate.80-water and administered intraperitoneally at 10 and 20 mg/kg for 9 days to determine its effectiveness for inhibition of tumor growth. Mice were sacrificed on Day 10, and the ascites fluid was collected from the peritoneal cavity. The volume and ascrit (packed cell volume) were determined for each animal and the percent inhibition of tumor growth was calculated. For the metabolic studies, mice were treated on Days 8 and 9 with 10 mg/kg of Compound I, intraperitoneally. […]
Carbamyl phosphate synthetase activity was determined using the reaction medium of Kalman et al [Am. […] Citrulline formed from ornithine was measured at 490 nm by the method of Archibald [J. Biol. Chem., 156, 121 (1944)]. […] The ^14 CO2 generated in 15 min was trapped in 1M KOH and counted. Thymidylate synthetase activity was determined using a post-mitochondrial supernatant (9000 g×10 min) and 5 μCi of 5-^3 H-deoxyuridine monophosphate (14 Ci/mmol) according to the method of Kampf et al [ J. Med. Chem., 19, 903 (1976)]. ^14 C-Formate incorporation into purines was determined by the method of Spassova et al [Biochem. Pharmacol., 25, 923 (1976)] using 0.5 μCi of ^14 C-formic acid (52.0 mCi/mmol). […] The Rf value for xanthine monophosphate was scraped and counted. […]

[3] = target: deoxyribonucleic acid polymerase; experiment: In vitro deoxyribonucleic acid polymerase activity in isolated nuclei; assay type: biochemical, mouse; conditions: isolated nuclei from Ehrlich ascites cells, read-out: ID50, Deoxyribonucleic acid polymerase activity
Method: CF1 male mice (~30 g) were implanted with 2×10^6 Ehrlich ascites tumor cells, intraperitoneally on Day 0. Compound I was suspended by homogenation in 0.05% polysorbate.80-water and administered intraperitoneally at 10 and 20 mg/kg for 9 days to determine its effectiveness for inhibition of tumor growth. Mice were sacrificed on Day 10, and the ascites fluid was collected from the peritoneal cavity. The volume and ascrit (packed cell volume) were determined for each animal and the percent inhibition of tumor growth was calculated. For the metabolic studies, mice were treated on Days 8 and 9 with 10 mg/kg of Compound I, intraperitoneally. The animal was sacrificed on Day 10 and the ascites fluid harvested. The in vitro metabolic studies were performed at […] final concentration of Compound I.
In vitro and in vivo nuclear deoxyribonucleic acid polymerase activity was determined on isolated Ehrlich ascites cell nuclei. The incubation was that described by Sawada et al [Can. Res., 34, 3341 (1974)] except that [methyl-^3 H] deoxythymidine triphosphate (82.4 Ci/mmol) was used. The acid insoluble nucleic acid was collected on GF/F filters and counted. Nuclear ribonucleic acid polymerase activities were determined on enzymes isolated from nuclei. […] The acid insoluble ribonucleic acid was collected on nitrocellulose filters and counted.

**Q.** For “{Cu[(CH3)3 N.BH2 CO2 ]2.(CH3)3 N.BH2 COOH} [Compound I]”, which “Appetite of the animal” value [1] is on record?
**A.** The value was “reduced”.

**Q.** And the Ribonucleotide reductase activity [2]?
**A.** Its Ribonucleotide reductase activity is “unaffected”.

**Q.** And the Riboncleotide reductase activity ([2]; 10 mg/kg/day I.P. on Days 8 and 9)?
**A.** The Riboncleotide reductase activity was 101 ± 8 % Control.

**Q.** What about the IC50 [3] of the same substance?
**A.** Its IC50 is 454 µM.
